Assay [1] has as its target T1, human FPR2 (Homo sapiens, UniProt P25090).
T1 sequence (P25090 1-351): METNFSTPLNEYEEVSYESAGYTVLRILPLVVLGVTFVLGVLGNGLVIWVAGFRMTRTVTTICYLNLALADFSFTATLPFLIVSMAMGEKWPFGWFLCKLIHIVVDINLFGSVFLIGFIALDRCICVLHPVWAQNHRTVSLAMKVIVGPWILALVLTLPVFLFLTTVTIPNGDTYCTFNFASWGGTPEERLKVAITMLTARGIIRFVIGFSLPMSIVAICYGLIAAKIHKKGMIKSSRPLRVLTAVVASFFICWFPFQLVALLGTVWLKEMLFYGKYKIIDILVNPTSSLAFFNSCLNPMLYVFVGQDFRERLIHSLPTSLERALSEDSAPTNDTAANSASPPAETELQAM
Nature of the assay: FPR2 cyclic adenosine monophosphate (cAMP) assay. The class given is cell-based. To be noted: CHO cells overexpressing human FPR2; forskolin 5 μM; inhibition of cAMP production; HTRF; read-out: hFPR2 cAMP2 EC50. The text has this: (§1) N-formyl peptide receptors (FPRs) are a family of chemo attractant receptors that facilitate leukocyte response during inflammation. FPRs belong to the seven-transmembrane G protein-coupled receptor superfamily and are linked to inhibitory G-proteins (Gi). Three family members (FPR1, FPR2 and FPR3) have been identified in humans and are predominantly found in myeloid cells with varied distribution and have also been reported in multiple organs and tissues. After agonist binding, the FPRs activate a multitude of physiological pathways, such as intra cellular signaling transduction, Ca^2+ mobilization and transcription. The family interacts with a diverse set of ligands that includes proteins, polypeptides and fatty acid metabolites which activate both pro-inflammatory and pro-resolution downstream responses. FPR2 and FPR1 Cyclic Adenosine Monophosphate (cAMP) Assays were used to measure the in vitro activity of the compounds disclosed in this application.
(§2) FPR2 and FPR1 Cyclic Adenosine Monophosphate (cAMP) Assays. A mixture of forskolin (5 μM final for FPR2 or 10 μM final for FPR1) and IBMX (200 μM final) were added to 384-well Proxiplates (Perkin-Elmer) pre-dotted with test compounds in DMSO (1% final) at final concentrations in the range of 0.020 nM to 100 μM. Chinese Hamster Ovary cells (CHO) overexpressing human FPR1 or human FPR2 receptors were cultured in F-12 (Ham's) medium supplemented with 10% qualified FBS, 250 μg/mL zeocin and 300 μg/mL hygromycin (Life Technologies). Reactions were initiated by adding 2,000 human FPR2 cells per well or 4,000 human FPR1 cells per well in Dulbecco's PBS (with calcium and magnesium) (Life Technologies) supplemented with 0.1% BSA (Perkin-Elmer). The reaction mixtures were incubated for 30 min at rt. The level of intracellular cAMP was determined using the HTRF HiRange cAMP assay reagent kit (Cisbio) according to manufacturer's instruction. Solutions of cryptate conjugated anti-cAMP and d2 flurorophore-labeled cAMP were made in a supplied lysis buffer separately. Upon completion of the reaction, the cells were lysed with equal volume of the d2-cAMP solution and anti-cAMP solution. […] The potency and activity of a compound to inhibit cAMP production was then determined by fitting to a 4-parametric logistic equation from a plot of cAMP level versus compound concentrations.
In general terms: Cyclic AMP is a second messenger, typically raised through Gs and lowered through Gi signalling.

Assay [2] deals with T2, human FPR1 (Homo sapiens, UniProt P21462).
T2 sequence (P21462 1-350): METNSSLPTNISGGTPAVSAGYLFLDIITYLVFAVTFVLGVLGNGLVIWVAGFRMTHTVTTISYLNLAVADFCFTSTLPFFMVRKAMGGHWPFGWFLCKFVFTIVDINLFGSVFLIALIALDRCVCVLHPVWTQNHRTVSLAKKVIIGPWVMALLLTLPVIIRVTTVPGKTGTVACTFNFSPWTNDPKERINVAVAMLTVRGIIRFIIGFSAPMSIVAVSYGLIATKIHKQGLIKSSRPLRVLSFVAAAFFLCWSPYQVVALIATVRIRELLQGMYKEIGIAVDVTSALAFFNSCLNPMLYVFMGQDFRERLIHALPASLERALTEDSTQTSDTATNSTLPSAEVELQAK
Nature of the assay: FPR1 cyclic adenosine monophosphate (cAMP) assay. As to conditions: CHO cells overexpressing human FPR1; forskolin 10 μM; inhibition of cAMP production; HTRF; read-out: hFPR1 cAMP2 EC50. The class given is cell-based.
From the text: as §1, §2

Data on 17 molecules can be found in patent publication US12577206B2 (BRISTOL-MYERS SQUIBB COMPANY, priority 2020, dated 2026).

In general, EC50 refers to the concentration needed to bring the measured effect to its halfway point.

For `CCc1ccc(OCC(C)(C)O)nc1-n1c(=O)c(NC(=O)c2ccc(OC(F)F)cc2)c(-c2c(F)cc(OC)cc2F)n1C` [Example 309, N-[5-(2,6-difluoro-4-methoxyphenyl)-2-[3-ethyl-6-(2-hydroxy-2-methylpropoxy)pyridin-2-yl]-1-methyl-3-oxo-2,3-dihydro-1H-pyrazol-4-yl]-4-(difluoromethoxy)benzamide], the figures for the EC50 in assay [1] and in assay [2] were 0.01 µM and 2.2 µM, respectively.
Taken in the same sequence, the figures for `COc1cc(F)c(-c2c(NC(=O)c3ccc(OC(F)F)cc3)c(=O)n(-c3cc(C4CCNCC4)cc(C)n3)n2C)c(F)c1` [Example 323, N-(5-(2,6-Difluoro-4-methoxyphenyl)-1-methyl-2-(6-methyl-4-(piperidin-4-yl)pyridin-2-yl)-3-oxo-2,3-dihydro-1H-pyrazol-4-yl)-4-(difluoromethoxy)benzamide] were 0.014 µM and more than 10 µM.
For `CCOc1cccc(-n2c(=O)c(NC(=O)c3ccc(OC(F)F)cc3)c(-c3c(F)cc(OC)cc3F)n2C)c1` [Example 118, N-[5-(2,6-difluoro-4-methoxyphenyl)-2-(3-ethoxyphenyl)-1-methyl-3-oxo-2,3-dihydro-1H-pyrazol-4-yl]-4-(difluoromethoxy)benzamide] the same measures were 0.006 µM and 0.003 µM.
For `COc1cc(N2C[C@@H](C)O[C@@H](C)C2)nc(-n2c(=O)c(NC(=O)c3ccc(OC(F)F)cc3)c(-c3c(F)cc(OC)cc3F)n2C)c1` [Example 92, N-[5-(2,6-difluoro-4-methoxyphenyl)-2-{6-[(2R,6S)-2,6-dimethylmorpholin-4-yl]-4-methoxypyridin-2-yl}-1-methyl-3-oxo-2,3-dihydro-1H-pyrazol-4-yl]-4-(difluoromethoxy)benzamide] the same measures were 0.016 µM and 2.1 µM.
In the case of `COc1cc(F)c(-c2c(NC(=O)c3ccc(OC(F)F)cc3)c(=O)n(-c3nc(C4CCN(S(C)(=O)=O)CC4)ccc3C(F)(F)F)n2C)c(F)c1` [Example 319], the values for the half-maximal effective concentration (EC50) in assay [1] and in assay [2] were 0.002 µM and more than 10 µM, respectively.
Taken in the same sequence, the figures for `COc1cc(F)c(-c2c(NC(=O)c3ccc(OC(F)F)cc3)c(=O)n(-c3nc(C(C)(C)F)ccc3C#N)n2C)c(F)c1` [Example 194, N-{2-[3-cyano-6-(2-fluoropropan-2-yl)pyridin-2-yl]-5-(2,6-difluoro-4-methoxyphenyl)-1-methyl-3-oxo-2,3-dihydro-1H-pyrazol-4-yl}-4-(difluoromethoxy)benzamide] were 0.005 µM and more than 10 µM.
As for `COc1cc(F)c(-c2c(NC(=O)c3ccc(OC(F)F)cc3)c(=O)n(-c3nc(N4CC[C@@H](CO)C4)ccc3C(F)(F)F)n2C)c(F)c1` [Example 292, N-[5-(2,6-difluoro-4-methoxyphenyl)-2-{6-[(3R)-3-(hydroxymethyl)pyrrolidin-1-yl]-3-(trifluoromethyl)pyridin-2-yl}-1-methyl-3-oxo-2,3-dihydro-1H-pyrazol-4-yl]-4-(difluoromethoxy)benzamide], the results for the EC50 in assay [1] and in assay [2] were 0.002 µM and 4.1 µM, respectively.
For `COc1cc(F)c(-c2c(NC(=O)c3ccc(OC(F)F)cc3)c(=O)n(-c3nc(C(F)(F)F)ccc3C#N)n2C)c(F)c1` [Example 157, N-{2-[3-cyano-6-(trifluoromethyl)pyridin-2-yl]-5-(2,6-difluoro-4-methoxyphenyl)-1-methyl-3-oxo-2,3-dihydro-1H-pyrazol-4-yl}-4-(difluoromethoxy)benzamide] the same measures were 0.004 µM and more than 10 µM.
Taken in the same sequence, the figures for `COc1cc(F)c(-c2c(NC(=O)c3ccc(OC(F)F)cc3)c(=O)n(-c3nc(Nc4ncn[nH]4)ccc3C(F)(F)F)n2C)c(F)c1` [Example 234, N-[5-(2,6-difluoro-4-methoxyphenyl)-1-methyl-3-oxo-2-{6-[(1H-1,2,4-triazol-5-yl)amino]-3-(trifluoromethyl)pyridin-2-yl}-2,3-dihydro-1H-pyrazol-4-yl]-4-(difluoromethoxy)benzamide] were 0.003 µM and 2.9 µM.
Taken in the same sequence, the figures for `COc1cc(F)c(-c2c(NC(=O)c3ccc(OC(F)F)cc3)c(=O)n(-c3cncc(Cl)c3)n2C)c(F)c1` [Example 130, N-[2-(5-chloropyridin-3-yl)-5-(2,6-difluoro-4-methoxyphenyl)-1-methyl-3-oxo-2,3-dihydro-1H-pyrazol-4-yl]-4-(difluoromethoxy)benzamide] were 0.02 µM and 1.9 µM.
As for `COc1cc(F)c(-c2c(NC(=O)c3ccc(OC(F)F)cc3)c(=O)n(-c3ccccc3)n2C)c(F)c1` [Example 1, N-[5-(2,6-difluoro-4-methoxyphenyl)-1-methyl-3-oxo-2-phenyl-2,3-dihydro-1H-pyrazol-4-yl]-4-(difluoromethoxy)benzamide], the figures for the EC50 in assay [1] and in assay [2] were 0.012 µM and 2.4 µM, respectively.
Taken in the same sequence, the figures for `COc1ccc(-c2c(NC(=O)c3ccc(OC(F)F)cc3)c(=O)n(-c3ncccc3C(F)(F)F)n2C)cc1` [Example 250, 4-(difluoromethoxy)-N-[5-(4-methoxyphenyl)-1-methyl-3-oxo-2-[3-(trifluoromethyl)pyridin-2-yl]-2,3-dihydro-1H-pyrazol-4-yl]benzamide] were 0.013 µM and 0.97 µM.
Consider `COc1cc(F)c(-c2c(NC(=O)c3ccc(OC(F)F)cc3)c(=O)n(-c3cc(CO)cc(OCCO)n3)n2C)c(F)c1` [Example 336, N-(5-(2,6-Difluoro-4-methoxyphenyl)-2-(6-(2-hydroxyethoxy)-4-(hydroxymethyl)pyridin-2-yl)-1-methyl-3-oxo-2,3-dihydro-1H-pyrazol-4-yl)-4-(difluoromethoxy)benzamide], for which the results for the EC50 in assay [1] and in assay [2] were 0.024 µM and more than 10 µM, respectively.
For `COc1cc(F)c(-c2c(NC(=O)c3ccc(OC(F)F)cc3)c(=O)n(-c3nc(C4CC4)ccc3C#N)n2C)c(F)c1` [Example 161, N-[2-(3-cyano-6-cyclopropylpyridin-2-yl)-5-(2,6-difluoro-4-methoxyphenyl)-1-methyl-3-oxo-2,3-dihydro-1H-pyrazol-4-yl]-4-(difluoromethoxy)benzamide] the same measures were 0.004 µM and more than 10 µM.
Taken in the same sequence, the figures for `COc1cc(OCC(C)(C)O)nc(-n2c(=O)c(NC(=O)c3ccc(OC(F)F)cc3)c(-c3c(F)cc(OC)cc3F)n2C)c1` [Example 322] were 0.007 µM and more than 10 µM.
On to `COc1cc(F)c(-c2c(NC(=O)c3ccc(OC(F)F)cc3)c(=O)n(-c3nc(N[C@@H](C)CO)ccc3C(F)(F)F)n2C)c(F)c1` [Example 237, N-[5-(2,6-difluoro-4-methoxyphenyl)-2-(6-{[(2S)-1-hydroxypropan-2-yl]amino}-3-(trifluoromethyl)pyridin-2-yl)-1-methyl-3-oxo-2,3-dihydro-1H-pyrazol-4-yl]-4-(difluoromethoxy)benzamide], for which the values for the concentration giving a half-maximal response (EC50) in assay [1] and in assay [2] were 0.001 µM and more than 5 µM, respectively.
For `COc1cc(OCC2CCOC2)nc(-n2c(=O)c(NC(=O)c3ccc(OC(F)F)cc3)c(-c3c(F)cc(OC)cc3F)n2C)c1` (stereo not shown) [Example 351, N-(5-(2,6-Difluoro-4-methoxyphenyl)-2-(4-methoxy-6-((tetrahydrofuran-3-yl)methoxy)pyridin-2-yl)-1-methyl-3-oxo-2,3-dihydro-1H-pyrazol-4-yl)-4-(difluoromethoxy)benzamide] the same measures were 0.002 µM and more than 10 µM.
